The supplement of paper PMC10307832

compound: COc1cccc2cc(-c3nc([C@H]4CC[C@H](C(=O)O)CC4)n4ncnc(N)c34)[nH]c12 [OSI-027] + CS(=O)(=O)N1CCN(Cc2cc3nc(-c4cccc5[nH]ncc45)nc(N4CCOCC4)c3s2)CC1 [Pictilisib] (partner 1 µM); test: relative viability (nuclei count vs DMSO), 5 days (fraction); higher = more cells survive; settings: first compound 0.01 µM
Summary of the method: (§1)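 The day after seeding in 1536-well plates, lung cancer cell lines were treated by pin tool with a single drug, or with a fixed anchor-drug dose together with five library-drug doses (not always all listed) in √10 steps. After 5 days, a combined fix-and-stain solution (final 0.05% Triton X-100, 1% formaldehyde, 1 ug/ml Hoechst) was added. Nuclei counted on 4× images gave relative viability as treated counts over vehicle counts, reported as the median of duplicate plates.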

Cell Line	relative viability
COR-L 105	0.389
LCLC-97TM1	0.211
NCI-H520	0.31
NCI-H23	0.491
HCC-827	0.9
NCI-H2347	0.559
LXF-289	0.778
NCI-H1666	0.365
RERF-LC-KJ	0.508
NCI-H650	0.882

same assay, conditions: first compound 0.03162 µM

Cell Line	relative viability
A-427	0.664
NCI-H2009	0.729
ABC-1	0.653
EKVX	0.384
NCI-H2087	0.787
NCI-H1734	0.45
LCLC-103H	0.641
LU99A	0.294
NCI-H460	0.416
NCI-H2170	0.295
SK-LU-1	0.462
COR-L23	0.877
HCC-15	0.771
NCI-H1944	0.349
EMC-BAC-2	0.47
NCI-H1792	0.166
NCI-H1395	0.705

Cell Line	relative viability
LC-2-ad	0.373
NCI-H2085	0.367
NCI-H727	0.247
NCI-H647	0.398
HARA	0.402
NCI-H3122	0.584
NCI-H358	0.333
COR-L 105	0.453
LCLC-97TM1	0.208
NCI-H520	0.268
NCI-H23	0.403
HCC-827	0.76
NCI-H2347	0.589
LXF-289	0.714
NCI-H1666	0.369
RERF-LC-KJ	0.542
NCI-H650	0.745

same assay, conditions: first compound 0.1 µM

Cell Line	relative viability
A-427	0.699
NCI-H2009	0.7
ABC-1	0.632
EKVX	0.368
NCI-H2087	0.686
NCI-H1734	0.491
LCLC-103H	0.582
LU99A	0.259
NCI-H460	0.295
NCI-H2170	0.245
SK-LU-1	0.355
COR-L23	0.668
HCC-15	0.68
NCI-H1944	0.32
EMC-BAC-2	0.469
NCI-H1792	0.213
NCI-H1395	0.514

Cell Line	relative viability
LC-2-ad	0.501
NCI-H2085	0.483
NCI-H727	0.351
NCI-H647	0.234
HARA	0.397
NCI-H3122	0.513
NCI-H358	0.273
COR-L 105	0.358
LCLC-97TM1	0.199
NCI-H520	0.219
NCI-H23	0.407
HCC-827	0.891
NCI-H2347	0.411
LXF-289	0.752
NCI-H1666	0.537
RERF-LC-KJ	0.492
NCI-H650	0.702

same assay, conditions: first compound 0.3162 µM

Cell Line	relative viability
A-427	0.495
NCI-H2009	0.46
ABC-1	0.445
EKVX	0.302
NCI-H2087	0.523
NCI-H1734	0.337
LCLC-103H	0.568
LU99A	0.18
NCI-H460	0.314
NCI-H2170	0.266
SK-LU-1	0.272
COR-L23	0.459
HCC-15	0.596
NCI-H1944	0.287
EMC-BAC-2	0.431
NCI-H1792	0.161
NCI-H1395	0.458

Cell Line	relative viability
LC-2-ad	0.474
NCI-H2085	0.33
NCI-H727	0.246
NCI-H647	0.276
HARA	0.242
NCI-H3122	0.317
NCI-H358	0.267
COR-L 105	0.377
LCLC-97TM1	0.116
NCI-H520	0.17
NCI-H23	0.312
HCC-827	0.878
NCI-H2347	0.324
LXF-289	0.511
NCI-H1666	0.27
RERF-LC-KJ	0.393
NCI-H650	0.452

same assay, conditions: first compound 1 µM

Cell Line	relative viability
A-427	0.378
NCI-H2009	0.405
ABC-1	0.319
EKVX	0.177
NCI-H2087	0.329
NCI-H1734	0.264
LCLC-103H	0.561
LU99A	0.189
NCI-H460	0.211
NCI-H2170	0.258
SK-LU-1	0.287
COR-L23	0.171
HCC-15	0.367
NCI-H1944	0.247
EMC-BAC-2	0.376
NCI-H1792	0.232
NCI-H1395	0.554

Cell Line	relative viability
LC-2-ad	0.221
NCI-H2085	0.323
NCI-H727	0.319
NCI-H647	0.15
HARA	0.258
NCI-H3122	0.258
NCI-H358	0.284
COR-L 105	0.254
LCLC-97TM1	0.126
NCI-H520	0.145
NCI-H23	0.245
HCC-827	0.483
NCI-H2347	0.313
LXF-289	0.46
NCI-H1666	0.257
RERF-LC-KJ	0.344
NCI-H650	0.345

compound: COc1cccc2cc(-c3nc([C@H]4CC[C@H](C(=O)O)CC4)n4ncnc(N)c34)[nH]c12 [OSI-027] + O=C(c1cc(Cc2n[nH]c(=O)c3ccccc23)ccc1F)N1CCN(C(=O)C2CC2)CC1 [Olaparib] (partner 8 µM); test: as above; settings: first compound 0.01 µM
Summary of the method: as §1

Cell Line	relative viability
A-427	0.817
NCI-H2009	0.859
ABC-1	0.667
EKVX	0.659
NCI-H2087	0.757
NCI-H1734	0.656
LCLC-103H	0.731
LU99A	0.279
NCI-H460	0.663
NCI-H2170	0.664
SK-LU-1	0.399
COR-L23	0.377
HCC-15	0.799
NCI-H1944	0.371
EMC-BAC-2	0.487
NCI-H1792	0.33
NCI-H1395	0.525

Cell Line	relative viability
LC-2-ad	0.774
NCI-H2085	0.751
NCI-H727	0.675
NCI-H647	0.681
HARA	0.771
NCI-H3122	0.759
NCI-H358	0.708
COR-L 105	0.713
LCLC-97TM1	0.59
NCI-H520	0.286
NCI-H23	0.339
HCC-827	0.669
NCI-H2347	0.599
LXF-289	1.07
NCI-H1666	0.777
RERF-LC-KJ	0.829
NCI-H650	0.406

same assay, conditions: first compound 0.03162 µM

Cell Line	relative viability
A-427	0.835
NCI-H2009	0.674
ABC-1	0.686
EKVX	0.935
NCI-H2087	0.675
NCI-H1734	0.597
LCLC-103H	0.753
LU99A	0.231
NCI-H460	0.369
NCI-H2170	0.592
SK-LU-1	0.43
COR-L23	0.335
HCC-15	0.745
NCI-H1944	0.373
EMC-BAC-2	0.489
NCI-H1792	0.296
NCI-H1395	0.412

Cell Line	relative viability
LC-2-ad	0.721
NCI-H2085	0.771
NCI-H727	0.688
NCI-H647	0.613
HARA	0.499
NCI-H3122	0.604
NCI-H358	0.546
COR-L 105	0.722
LCLC-97TM1	0.438
NCI-H520	0.313
NCI-H23	0.341
HCC-827	0.58
NCI-H2347	0.536
LXF-289	1.05
NCI-H1666	0.67
RERF-LC-KJ	0.866
NCI-H650	0.38

same assay, conditions: first compound 0.1 µM

Cell Line	relative viability
A-427	0.643
NCI-H2009	0.724
ABC-1	0.795
EKVX	0.88
NCI-H2087	0.586
NCI-H1734	0.599
LCLC-103H	0.749
LU99A	0.251
NCI-H460	0.41
NCI-H2170	0.604
SK-LU-1	0.396
COR-L23	0.208
HCC-15	0.729
NCI-H1944	0.422
EMC-BAC-2	0.468
NCI-H1792	0.247
NCI-H1395	0.48

Cell Line	relative viability
LC-2-ad	0.836
NCI-H2085	0.726
NCI-H727	0.671
NCI-H647	0.56
HARA	0.841
NCI-H3122	0.682
NCI-H358	0.579
COR-L 105	0.726
LCLC-97TM1	0.325
NCI-H520	0.293
NCI-H23	0.3
HCC-827	0.648
NCI-H2347	0.598
LXF-289	1.13
NCI-H1666	0.744
RERF-LC-KJ	0.82
NCI-H650	0.364

same assay, conditions: first compound 0.3162 µM

Cell Line	relative viability
A-427	0.593
NCI-H2009	0.584
ABC-1	0.859
EKVX	0.832
NCI-H2087	0.542
NCI-H1734	0.566
LCLC-103H	0.702
LU99A	0.201
NCI-H460	0.448
NCI-H2170	0.525
SK-LU-1	0.359
COR-L23	0.401
HCC-15	0.683
NCI-H1944	0.355
EMC-BAC-2	0.402
NCI-H1792	0.354
NCI-H1395	0.376

Cell Line	relative viability
LC-2-ad	0.87
NCI-H2085	0.763
NCI-H727	0.752
NCI-H647	0.463
HARA	0.616
NCI-H3122	0.647
NCI-H358	0.572
COR-L 105	0.571
LCLC-97TM1	0.281
NCI-H520	0.216
NCI-H23	0.141
HCC-827	0.599
NCI-H2347	0.492
LXF-289	0.971
NCI-H1666	0.77
RERF-LC-KJ	0.798
NCI-H650	0.337

same assay, conditions: first compound 1 µM

Cell Line	relative viability
A-427	0.506
NCI-H2009	0.555
ABC-1	0.404
EKVX	0.516
NCI-H2087	0.259
NCI-H1734	0.401
LCLC-103H	0.817
LU99A	0.2
NCI-H460	0.239
NCI-H2170	0.346
SK-LU-1	0.265
COR-L23	0.279
HCC-15	0.397
NCI-H1944	0.265
EMC-BAC-2	0.29
NCI-H1792	0.142
NCI-H1395	0.362

Cell Line	relative viability
LC-2-ad	0.737
NCI-H2085	0.633
NCI-H727	0.556
NCI-H647	0.398
HARA	0.352
NCI-H3122	0.407
NCI-H358	0.422
COR-L 105	0.685
LCLC-97TM1	0.347
NCI-H520	0.208
NCI-H23	0.188
HCC-827	0.326
NCI-H2347	0.344
LXF-289	0.625
NCI-H1666	0.71
RERF-LC-KJ	0.496
NCI-H650	0.219
